Experimental data taken from patent US20250002455A1, “NEW N-PHENYLPYRROLAMIDE INHIBITORS OF DNA GYRASE AND TOPOISOMERASE IV WITH ANTIBACTERIAL ACTIVITY” (priority 2020, published 2025).

How the values were obtained:
E. coli DNA gyrase = biological target: T1, E. coli DNA gyrase (Escherichia coli, UniProt P0AES6); assay: biochemical; conditions: E. coli DNA gyrase; read-out: IC50
T1 construct: purchased Inspiralis
Method in brief: (§1)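 Triplex-capture format: plasmid bound to a biotinylated oligonucleotide on streptavidin plates after reaction at 37 °C for 30 min. The reaction was stopped with TF buffer (50 mM NaOAc pH 5.0, 50 mM NaCl, 50 mM MgCl2), and captured DNA was stained with SybrGOLD. IC50 values are the mean of three independent measurements.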

S. aureus DNA gyrase = biological target: T2, S. aureus DNA gyrase (Staphylococcus aureus, UniProt P0A0K8); assay: biochemical; conditions: S. aureus DNA gyrase
T2 construct: purchased Inspiralis
T2 sequence (P20831 whole entry): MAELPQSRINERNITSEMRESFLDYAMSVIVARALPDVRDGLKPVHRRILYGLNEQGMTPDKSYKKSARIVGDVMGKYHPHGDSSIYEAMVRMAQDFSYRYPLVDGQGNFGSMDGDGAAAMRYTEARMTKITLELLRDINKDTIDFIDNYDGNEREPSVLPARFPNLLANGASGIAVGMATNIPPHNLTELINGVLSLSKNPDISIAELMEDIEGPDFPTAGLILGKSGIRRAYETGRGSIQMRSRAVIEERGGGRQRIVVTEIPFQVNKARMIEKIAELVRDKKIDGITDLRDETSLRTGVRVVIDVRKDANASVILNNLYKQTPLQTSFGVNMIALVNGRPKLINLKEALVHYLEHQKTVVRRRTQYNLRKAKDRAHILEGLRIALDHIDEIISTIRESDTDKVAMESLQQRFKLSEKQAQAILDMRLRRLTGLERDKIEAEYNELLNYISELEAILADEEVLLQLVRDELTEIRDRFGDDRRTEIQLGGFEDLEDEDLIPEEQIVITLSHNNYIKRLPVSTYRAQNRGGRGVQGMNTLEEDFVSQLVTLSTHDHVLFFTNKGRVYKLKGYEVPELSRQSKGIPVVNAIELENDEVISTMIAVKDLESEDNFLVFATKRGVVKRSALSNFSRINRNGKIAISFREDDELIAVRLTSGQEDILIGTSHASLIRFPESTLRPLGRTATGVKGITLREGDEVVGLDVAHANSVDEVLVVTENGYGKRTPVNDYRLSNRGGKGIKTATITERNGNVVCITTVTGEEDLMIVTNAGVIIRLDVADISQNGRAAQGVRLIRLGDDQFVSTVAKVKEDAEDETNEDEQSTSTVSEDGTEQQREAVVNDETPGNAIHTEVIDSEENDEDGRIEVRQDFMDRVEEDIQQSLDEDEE
T2 sequence (P0A0K8 whole entry): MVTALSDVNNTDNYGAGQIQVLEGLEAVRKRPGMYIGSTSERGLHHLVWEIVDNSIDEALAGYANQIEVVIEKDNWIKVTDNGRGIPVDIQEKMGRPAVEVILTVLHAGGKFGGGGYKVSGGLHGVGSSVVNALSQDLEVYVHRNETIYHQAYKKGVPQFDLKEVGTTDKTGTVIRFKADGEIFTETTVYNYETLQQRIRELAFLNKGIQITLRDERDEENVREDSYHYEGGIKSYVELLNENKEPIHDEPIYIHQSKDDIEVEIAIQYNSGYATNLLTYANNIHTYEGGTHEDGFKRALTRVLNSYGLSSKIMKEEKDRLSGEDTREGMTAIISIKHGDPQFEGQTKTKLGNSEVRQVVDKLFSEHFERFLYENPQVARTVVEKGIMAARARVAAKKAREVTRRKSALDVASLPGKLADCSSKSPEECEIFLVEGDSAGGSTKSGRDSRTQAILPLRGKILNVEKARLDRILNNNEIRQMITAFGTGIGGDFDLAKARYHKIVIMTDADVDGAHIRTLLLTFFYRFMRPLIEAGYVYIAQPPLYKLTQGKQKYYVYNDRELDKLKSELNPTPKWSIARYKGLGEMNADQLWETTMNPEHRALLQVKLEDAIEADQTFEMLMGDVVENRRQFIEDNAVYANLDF
Method in brief: as §1

E. coli topoisomerase IV = biological target: T3, E. coli topoisomerase IV (Escherichia coli, UniProt P20083); assay: biochemical; conditions: E. coli topo IV; 10 μM compound; read-out: RA (residual activity of the enzyme)
T3 construct: purchased Inspiralis
T3 sequence (P0AFI2 whole entry): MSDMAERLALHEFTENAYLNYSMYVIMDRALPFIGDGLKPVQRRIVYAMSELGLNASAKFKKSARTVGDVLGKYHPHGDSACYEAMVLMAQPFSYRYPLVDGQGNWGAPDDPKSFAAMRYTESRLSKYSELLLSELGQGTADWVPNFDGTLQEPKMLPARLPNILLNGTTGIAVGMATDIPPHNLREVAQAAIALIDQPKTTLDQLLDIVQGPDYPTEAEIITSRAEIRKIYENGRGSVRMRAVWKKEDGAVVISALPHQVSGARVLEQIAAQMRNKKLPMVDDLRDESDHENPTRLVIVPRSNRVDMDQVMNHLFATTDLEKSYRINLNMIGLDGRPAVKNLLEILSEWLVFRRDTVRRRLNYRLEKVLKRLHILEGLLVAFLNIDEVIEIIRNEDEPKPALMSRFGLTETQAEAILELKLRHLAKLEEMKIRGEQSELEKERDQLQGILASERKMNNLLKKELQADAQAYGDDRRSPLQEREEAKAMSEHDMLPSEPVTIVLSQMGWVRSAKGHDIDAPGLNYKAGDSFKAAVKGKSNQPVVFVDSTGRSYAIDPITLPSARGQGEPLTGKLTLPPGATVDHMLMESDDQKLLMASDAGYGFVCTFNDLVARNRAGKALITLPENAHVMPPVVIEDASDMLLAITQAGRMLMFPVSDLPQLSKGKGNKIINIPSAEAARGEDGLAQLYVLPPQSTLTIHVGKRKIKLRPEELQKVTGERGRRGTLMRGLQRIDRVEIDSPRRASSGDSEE
T3 sequence (P20083 whole entry): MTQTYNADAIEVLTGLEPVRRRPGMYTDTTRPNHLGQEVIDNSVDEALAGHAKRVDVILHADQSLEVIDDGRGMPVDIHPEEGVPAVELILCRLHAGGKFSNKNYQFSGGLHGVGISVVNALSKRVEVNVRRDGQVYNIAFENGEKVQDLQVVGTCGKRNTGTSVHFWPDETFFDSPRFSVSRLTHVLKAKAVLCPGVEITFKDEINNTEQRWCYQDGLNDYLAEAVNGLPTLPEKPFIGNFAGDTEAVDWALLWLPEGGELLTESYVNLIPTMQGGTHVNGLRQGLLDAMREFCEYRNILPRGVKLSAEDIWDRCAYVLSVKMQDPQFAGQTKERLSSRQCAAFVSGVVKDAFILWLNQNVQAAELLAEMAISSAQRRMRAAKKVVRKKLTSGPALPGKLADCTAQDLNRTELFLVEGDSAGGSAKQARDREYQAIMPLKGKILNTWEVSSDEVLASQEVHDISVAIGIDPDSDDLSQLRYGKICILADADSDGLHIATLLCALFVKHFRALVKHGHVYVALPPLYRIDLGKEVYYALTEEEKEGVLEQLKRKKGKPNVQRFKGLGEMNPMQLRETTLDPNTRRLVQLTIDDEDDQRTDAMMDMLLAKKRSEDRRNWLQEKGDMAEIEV
Method in brief: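 Supercoiling/relaxation read via biotin-oligonucleotide triplex capture on streptavidin plates; reactions 30 min at 37° C, stopped with TF buffer pH 5.0, plasmid stained with SybrGOLD.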

[1] = biological target: T4, S. aureus topoisomerase IV (Staphylococcus aureus, UniProt P0C1S7); assay: Topoisomerase IV inhibition assay (Inspiralis, streptavidin-coated plates); type: biochemical; conditions: S. aureus topo IV; for IC50: read-out: IC50
T4 construct: purchased Inspiralis
T4 sequence (P0C1U9 whole entry): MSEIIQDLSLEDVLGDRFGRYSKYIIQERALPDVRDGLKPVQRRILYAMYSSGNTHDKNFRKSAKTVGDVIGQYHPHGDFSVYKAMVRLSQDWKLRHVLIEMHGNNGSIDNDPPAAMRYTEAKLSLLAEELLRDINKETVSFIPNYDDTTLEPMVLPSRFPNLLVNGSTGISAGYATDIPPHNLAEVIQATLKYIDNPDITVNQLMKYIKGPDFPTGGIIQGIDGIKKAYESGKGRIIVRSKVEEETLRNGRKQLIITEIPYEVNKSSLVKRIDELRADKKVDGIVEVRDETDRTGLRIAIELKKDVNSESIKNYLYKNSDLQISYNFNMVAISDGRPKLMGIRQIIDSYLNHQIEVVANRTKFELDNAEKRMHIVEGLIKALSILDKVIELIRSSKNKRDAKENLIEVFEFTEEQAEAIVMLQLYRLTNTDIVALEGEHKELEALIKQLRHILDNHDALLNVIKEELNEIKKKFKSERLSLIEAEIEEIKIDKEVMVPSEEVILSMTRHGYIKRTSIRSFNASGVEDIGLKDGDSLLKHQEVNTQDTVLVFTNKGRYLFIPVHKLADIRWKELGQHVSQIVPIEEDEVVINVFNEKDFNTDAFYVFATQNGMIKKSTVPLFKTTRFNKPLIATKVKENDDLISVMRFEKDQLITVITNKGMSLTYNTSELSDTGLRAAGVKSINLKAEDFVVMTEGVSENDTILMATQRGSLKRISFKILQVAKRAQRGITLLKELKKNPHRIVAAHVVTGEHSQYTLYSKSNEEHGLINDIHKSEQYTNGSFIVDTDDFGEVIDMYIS
T4 sequence (P0C1S7 whole entry): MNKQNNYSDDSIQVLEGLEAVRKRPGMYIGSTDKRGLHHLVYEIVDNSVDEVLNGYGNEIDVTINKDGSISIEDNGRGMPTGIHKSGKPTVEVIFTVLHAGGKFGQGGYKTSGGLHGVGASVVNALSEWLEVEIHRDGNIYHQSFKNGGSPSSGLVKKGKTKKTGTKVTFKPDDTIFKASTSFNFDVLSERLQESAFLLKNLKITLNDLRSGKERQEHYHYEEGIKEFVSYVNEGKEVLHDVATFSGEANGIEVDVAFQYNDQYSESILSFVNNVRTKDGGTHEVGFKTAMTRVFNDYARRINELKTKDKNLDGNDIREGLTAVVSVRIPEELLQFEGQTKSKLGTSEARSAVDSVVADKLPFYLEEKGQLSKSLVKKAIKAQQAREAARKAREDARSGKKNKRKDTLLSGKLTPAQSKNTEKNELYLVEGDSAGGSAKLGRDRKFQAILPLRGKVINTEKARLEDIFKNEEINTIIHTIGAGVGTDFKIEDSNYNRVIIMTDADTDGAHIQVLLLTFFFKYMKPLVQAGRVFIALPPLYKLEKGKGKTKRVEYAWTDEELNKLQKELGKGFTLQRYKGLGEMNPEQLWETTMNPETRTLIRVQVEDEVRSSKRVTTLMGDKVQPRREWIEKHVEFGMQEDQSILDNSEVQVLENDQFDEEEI
Experimental: Inhibitory activities for compounds of the present invention were determined on E. coli and S. aureus DNA gyrase and topoisomerase IV in an assay from Inspiralis on streptavidin-coated 96-well microtiter plates from Thermo scientific Pierce. […] After washing off the unbound oligonucleotide, the enzyme test was performed. […] Reaction solutions were incubated at 37° C. for 30 min. After that, the TF buffer (50 mM NaOAc with pH 5.0, 50 mM NaCl and 50 mM MgCl2) was added to terminate the enzymatic reaction. After additional incubation for 30 min at rt, during which biotin-oligonucleotide-plasmid triplex was formed, the unbound plasmid was washed off using TF buffer and SybrGOLD in T10 buffer (10 mM Tris HCl with pH 8.0 and 1 mM EDTA) was added. […] Initial screening was done at 100 or 10 nM concentration of inhibitors against E. coli DNA gyrase or 1 μM or 100 nM concentration against S. aureus DNA gyrase and E. coli and S. aureus topo IV. […] GraphPad Prism 6.0 software was used to calculate the IC50 values. The result is given as the average value of three independent measurements. […] Chemoth.

[2] = system: A. baumannii (ATCC 19606); assay: Microbroth dilution MIC (CLSI); type: cell-based; conditions: Acinetobacter baumannii, ATCC19606; A. baumannii (ATCC 19606); read-out: MIC
Method in brief: (§2)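 Testing follows CLSI documents M07-A8 and M11-A8. Each compound is dissolved in DMSO and diluted two-fold serially in the same solvent. No visible growth at the lowest concentration sets the MIC.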

E. coli ATCC 25922 = assay: Microbroth dilution MIC (CLSI); type: cell-based; conditions: Escherichia coli, ATCC25922; E. coli ATCC 25922; read-out: MIC
Method in brief: as §2

E. faecium (ATCC 35667) = assay: Microbroth dilution MIC (CLSI); type: cell-based; conditions: Enterococcus faecium, ATCC35667; E. faecium (ATCC 35667); read-out: MIC
Method in brief: as §2

[3] = system: K. pneumoniae (ATCC 700603); assay: Microbroth dilution MIC (CLSI); type: cell-based; conditions: Klebsiella pneumoniae, ATCC700603; K. pneumoniae (ATCC 700603); read-out: MIC
Method in brief: as §2

P. aeruginosa ATCC 27853 = assay: Microbroth dilution MIC (CLSI); type: cell-based; conditions: Pseudomonas aeruginosa, ATCC27853; P. aeruginosa ATCC 27853; read-out: MIC
Method in brief: as §2

S. aureus ATCC 29213 = assay: Microbroth dilution MIC (CLSI); type: cell-based; conditions: Staphylococcus aureus, ATCC29213; S. aureus ATCC 29213; read-out: MIC
Method in brief: as §2

[4] = system: E. aerogenes (ATCC 13408); assay: Microbroth dilution MIC (CLSI); type: cell-based, Enterobacter aerogenes; conditions: Klebsiella aerogenes, ATCC13408; E. aerogenes (ATCC 13408); read-out: MIC
Experimental: The chemical entities described in the present invention were assessed for their antimicrobial activity using a microbroth dilution assay as recommended by the CLSI (Methods for Dilution Antimicrobial Susceptibility Tests for Bacteria That Grow Aerobically, and Methods for Antimicrobial Susceptibility Testing of Anaerobic Bacteria, Clinical and Laboratory Standards Institute, Document M07-A8, and M11-A8, Wayne, PA 19087, USA, 2012.). Compounds were dissolved by using 100% DMSO. Serial two-fold dilutions of each compound were made by using 100% DMSO as the diluent.
A library of Gram-negative and Gram-positive microbes and their drug- and multidrug-resistant variants were employed as test organisms. The MIC (minimum inhibitory concentration) was determined as the lowest concentration of an individual drug that lead to no visible growth.

[5] = biological target: DNA gyrase from Mycobacterium tuberculosis (Mycobacterium tuberculosis, UniProt P9WG45); assay: Gel-based supercoiling assay; type: biochemical; conditions: M. tuberculosis DNA gyrase
Text: Example compound 18 was additionally evaluated against DNA gyrase from Mycobacterium tuberculosis using a gel-based supercoiling assay.

A. baumannii ATCC 17978 = assay: Microbroth dilution MIC (CLSI); type: cell-based; conditions: Acinetobacter baumannii, ATCC17978; A. baumannii ATCC 17978; read-out: MIC
Method in brief: as §2

E. faecalis ATCC 29212 = assay: Microbroth dilution MIC (CLSI); type: cell-based; conditions: Enterococcus faecalis, ATCC29212; E. faecalis ATCC 29212; read-out: MIC
Method in brief: as §2

[6] = system: E. spp. cloacae ATCC 13047; assay: Microbroth dilution MIC (CLSI); type: cell-based; conditions: Enterobacter cloacae, ATCC13047; E. spp. cloacae ATCC 13047; read-out: MIC
Method in brief: as §2

K. pneumoniae ATCC 10031 = assay: Microbroth dilution MIC (CLSI); type: cell-based; conditions: Klebsiella pneumoniae, ATCC10031; K. pneumoniae ATCC 10031; read-out: MIC
Method in brief: as §2

[7] = system: S. aureus ATCC 43300 (MRSA); assay: Microbroth dilution MIC (CLSI); type: cell-based; conditions: Staphylococcus aureus; S. aureus ATCC 43300 (MRSA); read-out: MIC
Method in brief: as §2

[8] = 10 μM compound, read-out: RA (residual activity of the enzyme)

| Structure (SMILES) | IC50 (E. coli DNA gyrase) | remaining activity at 10 µM (E. coli topoisomerase IV) | MIC [2] | MIC (E. coli ATCC 25922) | MIC (E. faecium (ATCC 35667)) | MIC [3] | MIC (P. aeruginosa ATCC 27853) | MIC (S. aureus ATCC 29213) | MIC [4] | IC50 [1] | also measured |
| --- | --- | --- | --- | --- | --- | --- | --- | --- | --- | --- | --- |
| Cl.N[C@H]1CCN(c2cc(C(=O)NCC(=O)O)ccc2NC(=O)c2cc(Br)c(Br)[nH]2)C1 [Example 38, (S)-1-(5-((Carboxymethyl)carbamoyl)-2-(4,5-dibromo-1H-pyrrole-2-carboxamido)phenyl)pyrrolidin-3-aminium chloride] | 35.7 nM | 84% | ≥ 64 µg/mL | ≥ 64 µg/mL | ≥ 64 µg/mL | ≥ 64 µg/mL | ≥ 64 µg/mL | ≥ 64 µg/mL | ≥ 64 µg/mL | – | remaining activity at 10 µM (S. aureus DNA gyrase; [8]): 46%; remaining activity at 10 µM [1, 8]: 91% |
| Cc1[nH]c(C(=O)Nc2ccc(C(=O)NCC(=O)O)cc2N2CCNCC2)c(Cl)c1Cl.Cl [Example 36, 4-(5-((Carboxymethyl)carbamoyl)-2-(3,4-dichloro-5-methyl-1H-pyrrole-2-carboxamido)phenyl)piperazin-1-ium chloride] | 40.3 nM | -43% | ≥ 64 µg/mL | ≥ 64 µg/mL | ≥ 64 µg/mL | ≥ 64 µg/mL | ≥ 64 µg/mL | ≥ 64 µg/mL | ≥ 64 µg/mL | 4190 nM | IC50 (S. aureus DNA gyrase; read-out: IC50): 621 nM |
| Cc1[nH]c(C(=O)Nc2ccc(-c3n[nH]c(=O)o3)cc2N2CCC[C@H](N)C2)c(Cl)c1Cl.Cl [Example 18, (S)-1-(2-(3,4-Dichloro-5-methyl-1H-pyrrole-2-carboxamido)-5-(5-oxo-4,5-dihydro-1,3,4-oxadiazol-2-yl)phenyl)piperidin-3-aminium chloride] | 27.2 nM | – | – | 16 µg/mL | – | – | 64 µg/mL | 2 µg/mL | – | 406 nM | remaining activity at 0.1 µM (S. aureus DNA gyrase; 0.1 μM compound, read-out: RA (residual activity of the enzyme)): 41%; remaining activity at 1 µM (S. aureus DNA gyrase; 1 μM compound, read-out: RA (residual activity of the enzyme)): 11%; IC50 [5]: 26.5 ± 2.1 nM; MIC (A. baumannii ATCC 17978): 16 µg/mL; MIC (E. faecalis ATCC 29212): 2 µg/mL; MIC [6]: > 64 µg/mL; MIC (K. pneumoniae ATCC 10031): 0.25 µg/mL; MIC [7]: 4 µg/mL |
